In ChEMBL document CHEMBL3988442, “University of Dundee, Small-Polar-MMV Screening Library” (2021):

Tests used:
[1] = microbe, parasite or virus in culture; details: Mycobacterium tuberculosis, 96 h, read-out: pIC50 (converted)
[2] = microbe, parasite or virus in culture; details: Mycobacterium tuberculosis, 72 h, read-out: pIC50 (converted)

| SMILES | IC50 [1] [µM] | IC50 [2] [µM] |
| --- | --- | --- |
| CN(CCn1cccn1)c1cc(Br)ccn1 | 366 | 190 |
| Cc1nn(CC(=O)N(C)C)c(=O)c2ccccc12 | > 501 | > 501 |
| CCN(CC1CCOC1)C(=O)c1cc(I)c[nH]1 (configuration not stated) | > 501 | 212 |
| N#Cc1c(F)cccc1NCCSCCCO | 67.1 | 102 |
| CC(CCc1ccc(O)cc1)NC1(CO)CC1 (configuration not stated) | > 501 | 199 |
| FC(F)Sc1ccc(NCc2nnc(C3CC3)o2)cc1 | 46.7 | 11.8 |
| O=C(CCn1cccn1)N1CCCCCC1 | > 501 | 110 |
| CC(C)Oc1ccc(C(=O)NCc2ccnc(N3CCCC3)c2)cn1 | 45.1 | 36.9 |
| NC(=O)C(N)c1ccc2c(c1)OCCO2 (configuration not stated) | > 501 | > 501 |
| O=C(Cc1ccc2c(c1)CCCC2)Nc1cccnc1N1CCSCC1 | 9.97 | 12 |
| c1ccc(CNc2cc(-n3cccn3)ncn2)cc1 | > 501 | 11.2 |
| Cc1nc(C2CCCN(C(=O)c3ccc(S(C)(=O)=O)cc3)C2)no1 (configuration not stated) | > 50.1 | > 50.1 |
| Cc1cc2nc(CN)[nH]c2cc1C | > 501 | 148 |
| NCC(O)c1ccc(Cl)s1 (configuration not stated) | 290 | 241 |
| NCC(=O)Nc1ccc(Cl)c(F)c1 | 120 | 212 |
| CSc1c(F)cc(NC(=O)NCCO)cc1F | > 501 | > 501 |
| COc1ccc([S+]([O-])Cc2noc(C)n2)cc1 (configuration not stated) | 143 | 206 |
| Cc1ccccc1-n1nnnc1SCC(=O)NC1CC1 | > 501 | 199 |
| Cc1ccc(-c2noc(CN3CC(n4cc(C)cn4)C3)n2)cc1 | 22.6 | 49.1 |
| CCc1ccc2c(c1)[C@@H](N)CCO2 | > 501 | > 501 |
| COCCCN(C)S(=O)(=O)c1ccc(Br)cn1 | 206 | 278 |
| COc1cccc(CNCc2cccnc2-n2cccn2)c1OC | > 50.1 | > 50.1 |

| SMILES | IC50 [1] [µM] | IC50 [2] [µM] |
| --- | --- | --- |
| O=C(CSc1nnnn1Cc1cccs1)NC1CC1 | 216 | 492 |
| O=C(NC1CCCNC1)c1coc2ccccc12 (configuration not stated) | > 501 | > 501 |
| NC(=O)C(Sc1nnc[nH]1)c1ccc(Br)cc1 (configuration not stated) | > 501 | > 501 |
| Cc1ccc(Cl)c(NC(=O)NC2(C)CCOC2)c1 (configuration not stated) | > 50.1 | > 50.1 |
| N#Cc1ccc(OCC(=O)Nc2ccccn2)cc1 | > 501 | 247 |
| Cc1ccc(CNC(=O)c2ccc(F)cc2)o1 | 47.3 | 19.6 |
| CC(CO)(CO)NCc1cnn(-c2ccc(Br)cc2)c1 | 393 | 238 |
| Cc1ccc(S(=O)(=O)NC(CN)C2CC2)c(F)c1 (configuration not stated) | > 501 | > 501 |
| c1ccc(CCc2n[nH]c(C3CCC3)n2)cc1 | > 50.1 | > 50.1 |
| Cn1ccnc1N1CCN(c2ccc(C#N)cn2)CC1 | > 501 | > 501 |
| COc1cccc(S(=O)(=O)CCN2CCCC2CO)c1 (configuration not stated) | 141 | 462 |
| CC(C)c1csc(C(=O)N2CCOc3ncccc32)n1 | 231 | 139 |
| FC(F)(F)c1cccc(NCc2cccnc2)n1 | 275 | 85.5 |
| CC(=O)NCC1CNCCO1 (configuration not stated) | > 501 | > 501 |
| CC(=O)c1ccc(NCC(=O)NC(C)C(C)C)cc1 (configuration not stated) | 182 | 182 |
| COc1cc(NC(=O)NCc2nncn2C)ccc1Br | > 501 | 218 |
| Cc1nnc(N2CC[C@@H](OCC3CC3)[C@@H](Cc3ccccc3)C2)s1 | > 50.1 | 38.3 |
| CNC(=O)CN(C)C(=O)CCc1ccc(Br)cc1F | 166 | 108 |
| COc1ccc([C@H]2C[C@H](N)C2)cc1F | 60.7 | 95 |
| COc1ccc(-c2cccc(-c3ccn(CCN(C)C)n3)c2)nn1 | 16.3 | 19.9 |
| CCC(C)Oc1ccc(CNCCNS(C)(=O)=O)cc1Cl (configuration not stated) | > 50.1 | > 50.1 |
| CCOc1ccc(CN2CCc3nc4ccsc4c(=O)n3CC2)cc1 | 16.3 | 37.8 |

| SMILES | IC50 [1] [µM] | IC50 [2] [µM] |
| --- | --- | --- |
| CCOc1nn(CC)cc1-c1nnc(SCc2ccccn2)n1C | > 50.1 | 25.4 |
| COc1cc(OC)c(NC(=O)Cn2ccnc2)cc1Cl | 264 | 243 |
| Cc1nn(C)cc1S(=O)(=O)NCC(c1ccccc1)N1CCCCCC1 (configuration not stated) | > 50.1 | > 50.1 |
| Cc1cccnc1CN1CCOC(Cc2cccc3ccccc23)C1 (configuration not stated) | > 50.1 | > 50.1 |
| CCn1nc(C)cc1C(=O)Nc1ccnc(N(C)C)n1 | > 501 | 96.2 |
| N#Cc1ccc(NC(=O)Cn2ccnc2)cc1 | > 501 | > 501 |
| CC1CCN(C(CN)c2cccs2)CC1 (configuration not stated) | 263 | 217 |
| CCOC(=O)N1CCC(NC(=O)c2ccsc2)CC1 | > 501 | 137 |
| COc1cc(-c2cccc3c2OC(CN)C3)cc(OC)c1OC (configuration not stated) | 43.9 | 43.9 |
| CNC(=O)c1cccc(CNC(C)c2ccc(F)cc2N(C)C)c1 (configuration not stated) | > 50.1 | > 50.1 |
| CC(C)NS(=O)(=O)c1cc(CN)ccc1F | > 501 | > 501 |
| CC1CCCCN1C(=O)COCc1nc(-c2ccncc2)no1 (configuration not stated) | > 50.1 | > 50.1 |
| CC(Nc1ccc(F)cc1)C(=O)N1CCCC1 (configuration not stated) | 68.6 | 106 |
| COCCNC(=O)c1cc(-c2ccccc2F)no1 | 127 | 195 |
| Cc1ccc(C)c(-n2cc(CN3CC[C@@H](O)C3)c(-c3ccccc3)n2)c1 | > 50.1 | 27.1 |
| Cc1nc(-c2ccc(NCCc3ccc(O)cc3)nc2)[nH]c(=O)c1C | 32.1 | 42.1 |
| CCN(CC)S(=O)(=O)CC(=O)Nc1ccc(F)c(C)c1 | 265 | 252 |
| COc1cc(CCN)ccc1C | 277 | 303 |
| CCOC(=O)c1cnc(N2CCNCC2)s1 | 240 | 256 |
| COCCSCc1cccc(NC(=O)C(C)N)c1 (configuration not stated) | > 501 | 119 |
| COc1ccc(NC(=O)NC(C)(C)C(C)(C)O)cc1 | > 501 | 186 |
| O=C1NC(=O)c2c(O)cccc21 | 254 | 196 |

| SMILES | IC50 [1] [µM] | IC50 [2] [µM] |
| --- | --- | --- |
| NC1CCN(Cc2ccccc2F)CC1 | > 501 | > 501 |
| CCCNC(=O)c1cc(Br)c[nH]1 | > 501 | > 501 |
| c1cncc(CN2CCCC(c3nnc(-c4cnccn4)o3)C2)c1 (configuration not stated) | > 50.1 | > 50.1 |
| Clc1ccc(COCC2CCN(Cc3ccccn3)CC2)cc1 | 26.8 | 26.2 |
| NCC1CCN(CCc2ccccc2)C1 (configuration not stated) | 213 | 209 |
| FC(F)(F)Sc1ccc(NCc2nnc(C3CC3)o2)cc1 | 14.3 | 36.4 |
| Cc1ccccc1N1CCN(c2cc(N(C)C)ncn2)C(C)C1 (configuration not stated) | > 50.1 | > 50.1 |
| CCc1nnc(NC(=O)N(CCOC)Cc2ccc(C)o2)s1 | > 50.1 | > 50.1 |
| CCOC(C(=O)N(C)CC(N)=O)c1ccccc1 (configuration not stated) | > 501 | > 501 |
| CCOC(=O)c1ccccc1N1C(=O)C=CC1=O | 83.7 | 60.4 |
| NCc1noc(-c2cccc(Br)c2)n1 | > 501 | 127 |
| O=C(Oc1nsnc1N1CCCCC1)N1CCOCC1 | 432 | 168 |
| Cc1cccc(CC(=O)N2CCn3cnnc3C2)c1 | 187 | 170 |
| CCN(CCn1cccn1)C(=O)c1cc(C(C)C)no1 | > 501 | > 501 |
| CC(C)c1ccc(O)c(C(=O)NC2CCN(c3ncccn3)CC2)c1 | 24.7 | 20.4 |
| Cn1nnc(NCc2ccc(-c3ccc(Cl)cc3)o2)n1 | 8.3 | 42.2 |
| CCOCC(O)CSc1nccn1-c1cccc(F)c1 (configuration not stated) | 290 | 189 |
| NCc1ccncc1OCc1ccccc1 | > 501 | 134 |
| CN(Cc1cc(Br)cs1)C(=O)CC1(N)CCC1 | > 501 | 158 |
| O=C(NC1CCCc2occc21)c1cccnc1 (configuration not stated) | 79.9 | 57.8 |
| CCN(CC)c1ccc(C(=O)Nc2cc[nH]n2)cn1 | > 501 | 251 |
| CN(C)c1ccc(CNC(=O)C2CCCO2)cc1 (configuration not stated) | 197 | 219 |

| SMILES | IC50 [1] [µM] | IC50 [2] [µM] |
| --- | --- | --- |
| CN(CC1CCOCC1)C(=O)NCc1ccco1 | 125 | 95.8 |
| Cc1ncc(Cn2cc(F)ccc2=O)s1 | > 501 | > 501 |
| c1ccc2[nH]c(NCC3CCCO3)nc2c1 (configuration not stated) | 166 | > 501 |
| CN(CCc1nc(-c2cccc(Cl)c2)no1)CCn1cccn1 | 41.6 | 4.75 |
| CN(C)C(=O)c1csc2c1CCCC2 | 186 | 271 |
| CCCc1ccc(C(=O)N2CCCN(C)CC2)cc1 | > 501 | 270 |
| COCc1ccccc1CNC(=O)c1nc(C)ns1 | 145 | 488 |
| CCOCCSc1nnc(Cc2ccccc2F)o1 | 27.5 | 33.5 |
| OCCN1CCN(c2nc(-c3ccccc3)no2)CC1 | > 501 | 83.7 |
| CN(C)c1cc(CNC(=O)c2ccc(Br)o2)ccn1 | > 501 | > 501 |
| O=C(CC1C=CCC1)N1CCN(Cc2ccco2)CC1 (configuration not stated) | 228 | 184 |
| N#Cc1cc(Br)ccc1NCCC(=O)N1CCOCC1 | > 501 | 165 |
| C=C(C)CN1CCN(c2ccccn2)CC1 | > 501 | > 501 |
| NC(=O)C(NC(=O)c1sccc1Br)c1ccccc1 (configuration not stated) | > 501 | > 501 |
| COCCCSc1ccc(NCc2ccc(C)cn2)cc1 | 49.1 | > 50.1 |
| NC(=O)c1ccc(-c2nc(C3CCCC3)no2)o1 | 228 | 338 |
| O=C(OCCNc1ncccn1)c1ccc(Cl)s1 | > 50.1 | 29.7 |
| CC(C)Oc1cccc(CN(C)C(=O)Cc2ccon2)c1 | > 50.1 | > 50.1 |
